{"source": "patent US7973055B2", "about": "“Crystalline forms of a biphenyl compound” (Theravance, Inc., priority 2006, dated 2011)", "key": {"[1]": {"target": "T1, hM2 receptor (CHO-K1 cells) (Homo sapiens, UniProt P08172)", "T1 construct": "expressed in transfected cells; host or cells: CHO-K1 cells", "T1 sequence (P08172 1-466)": "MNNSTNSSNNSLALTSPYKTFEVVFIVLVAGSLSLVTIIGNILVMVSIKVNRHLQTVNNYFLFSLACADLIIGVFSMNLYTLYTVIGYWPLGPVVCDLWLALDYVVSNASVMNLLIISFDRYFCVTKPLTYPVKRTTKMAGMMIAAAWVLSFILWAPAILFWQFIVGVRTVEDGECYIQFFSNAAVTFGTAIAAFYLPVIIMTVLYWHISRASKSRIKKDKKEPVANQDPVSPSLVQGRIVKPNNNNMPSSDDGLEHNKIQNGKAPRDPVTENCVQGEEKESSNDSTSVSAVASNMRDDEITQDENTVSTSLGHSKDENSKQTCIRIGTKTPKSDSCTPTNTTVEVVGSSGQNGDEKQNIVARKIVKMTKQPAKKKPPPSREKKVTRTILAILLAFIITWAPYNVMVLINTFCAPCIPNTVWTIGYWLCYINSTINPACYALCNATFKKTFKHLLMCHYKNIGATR", "test": "Blockade of agonist-mediated inhibition of cAMP accumulation", "assay_type": "cell-based", "details": "CHO-K1 cells expressing hM2; this or a similar assay; read-out: Ki for blockade of oxotremorine-inhibition of forskolin-mediated cAMP accumulation", "experimental": "In this assay, the functional potency of a test compound was determined by measuring the ability of the test compound to block oxotremorine-inhibition of forskolin-mediated cAMP accumulation in CHO-K1 cells expressing the hM2 receptor. cAMP assays were performed in a radioimmunoassay format using the Flashplate Adenylyl Cyclase Activation Assay System with ^125I-cAMP (NEN SMP004B, PerkinElmer Life Sciences Inc., Boston, Mass.), according to the manufacturer's instructions.\nCells were rinsed once with dPBS and lifted with Trypsin-EDTA solution (0.05% trypsin/0.53 mM EDTA) as described in the Cell Culture and Membrane Preparation section above. […] The cell pellet was then re-suspended in 10 mL dPBS, and the cells were counted with a Coulter Z1 Dual Particle Counter (Beckman Coulter, Fullerton, Calif.). […]\nTo measure oxotremorine inhibition of AC activity, 25 μL forskolin (25 μM final concentration diluted in dPBS), 25 μL diluted oxotremorine, and 50 μL cells were added to agonist assay wells. […] Plates were sealed, incubated overnight at room temperature and counted the next morning on a PerkinElmer TopCount liquid scintillation counter (PerkinElmer Inc., Wellesley, Mass.). The amount of cAMP produced (pmol/well) was calculated based on the counts observed for the samples and cAMP standards, as described in the manufacturer's user manual. […]"}, "[2]": {"target": "T2, hM3 receptor (CHO cells) (Homo sapiens, UniProt P20309)", "T2 construct": "expressed in transfected cells", "T2 sequence (P20309 whole entry)": "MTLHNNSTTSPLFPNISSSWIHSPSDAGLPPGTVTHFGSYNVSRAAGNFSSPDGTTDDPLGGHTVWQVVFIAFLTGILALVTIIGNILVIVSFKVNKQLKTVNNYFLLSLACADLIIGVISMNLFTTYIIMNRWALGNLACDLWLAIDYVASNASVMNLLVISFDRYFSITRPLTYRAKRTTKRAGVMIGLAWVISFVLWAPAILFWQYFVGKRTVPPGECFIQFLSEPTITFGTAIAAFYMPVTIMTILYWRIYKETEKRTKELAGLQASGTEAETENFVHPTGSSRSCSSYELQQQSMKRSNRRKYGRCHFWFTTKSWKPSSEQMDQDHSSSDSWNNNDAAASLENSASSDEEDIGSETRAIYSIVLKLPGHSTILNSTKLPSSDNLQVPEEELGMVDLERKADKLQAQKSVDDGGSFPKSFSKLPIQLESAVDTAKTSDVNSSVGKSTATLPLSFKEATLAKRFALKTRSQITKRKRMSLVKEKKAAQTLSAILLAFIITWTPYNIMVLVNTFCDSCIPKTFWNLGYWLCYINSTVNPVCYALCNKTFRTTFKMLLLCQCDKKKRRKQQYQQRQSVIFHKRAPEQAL", "test": "Blockade of agonist-mediated calcium release via FLIPR", "assay_type": "cell-based", "details": "CHO cells stably expressing hM3, FLIPR; this or a similar assay", "description": "Muscarinic receptor subtypes (M1, M3 and M5 receptors), which couple to Gq proteins, activate the phospholipase C (PLC) pathway upon agonist binding to the receptor. As a result, activated PLC hydrolyzes phosphatyl inositol diphosphate (PIP2) to diacylglycerol (DAG) and […] (IP3), which in turn generates calcium release from intracellular stores, i.e., endoplasmic and sarcoplasmic reticulum. The FLIPR (Molecular Devices, Sunnyvale, Calif.) assay capitalizes on this increase in intracellular calcium by using a calcium sensitive dye (Fluo-4AM, Molecular Probes, Eugene, Oreg.) that fluoresces when free calcium binds. This fluorescence event was measured in real time by the FLIPR, which detected the change in fluorescence from a monolayer of cells cloned with human M1 and M3, and chimpanzee M5 receptors. Antagonist potency was determined by the ability of antagonists to inhibit agonist-mediated increases in intracellular calcium.\nFor FLIPR calcium stimulation assays, CHO cells stably expressing the hM1, hM3 and cM5 receptors were seeded into 96-well FLIPR plates the night before the assay was done. […]\nTo determine antagonist potency, the dose-dependent stimulation of intracellular Ca^2+ release for oxotremorine was first determined so that antagonist potency can later be measured against oxotremorine stimulation at an EC90 concentration. […]"}}}
{"smiles": "CN(CCN1CCC(OC(=O)Nc2ccccc2-c2ccccc2)CC1)C(=O)c1cccc(C(=O)NCCNCc2ccc(O)cc2)c1", "note": "[compound of formula I, biphenyl-2-ylcarbamic acid 1-[2-({3-[2-(4-hydroxybenzylamino)ethylcarbamoyl]benzoyl}methylamino)ethyl]piperidin-4-yl ester]", "values": [{"measurement": "Ki", "setting": "[1]", "result": "< 5", "unit": "nM"}, {"measurement": "Ki", "setting": "[2]", "result": "< 10", "unit": "nM"}]}
